These results are taken from PubChem BioAssay (NCI).

Among the test systems are A498 renal; HCC-2998 colon; HT29 colon; MDA-MB-231 breast; NCI-H460 lung; OVCAR-4 ovarian; OVCAR-5 ovarian; OVCAR-8 ovarian; RXF 393 renal; U251 CNS.
Common to all, as to assay: NCI anticancer screen, dose series, 48 h

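48-hour exposure; five concentrations; linearly interpolated endpoints. GI50 = concentration required for 50% inhibition of growth. TGI denotes the concentration required for complete inhibition of growth.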 A value given as a limit tells only on which side of the number the result lay.

As for `CC(=O)OC1COC(S[As](C)C)C(OC(C)=O)C1OC(C)=O` (stereo not given), the GI50 with A498 renal was 0.285 µM; in the assay on HCC-2998 colon it was 0.333 µM; in the assay with HT29 colon, 0.558 µM; with MDA-MB-231 breast, 0.512 µM; in the assay with NCI-H460 lung it was 1.05 µM; in the assay on OVCAR-4 ovarian it was 2.53 µM. Moreover, the GI50 is 0.226 µM in the assay on OVCAR-5 ovarian, 0.735 µM with OVCAR-8 ovarian, 0.338 µM in the assay with RXF 393 renal and 0.639 µM in the assay with U251 CNS. Moreover, the TGI in the assay with A498 renal was 1.56 µM; in the assay on HCC-2998 colon, 0.922 µM; with HT29 colon, more than 100 µM; in the assay with MDA-MB-231 breast it was 2.86 µM; in the assay with NCI-H460 lung, 14.5 µM; with OVCAR-4 ovarian it was 24 µM. The TGI in the assay on OVCAR-5 ovarian is 1.8 µM; with OVCAR-8 ovarian, 5.31 µM; with RXF 393 renal it was 2.9 µM; with U251 CNS, 5.24 µM.

For `CCC[C@H](N[C@@H]1CCc2cc(F)cc(F)c2C1)C(=O)Nc1cn(C(C)(C)CNCC(C)(C)C)cn1`, the GI50 in the assay on A498 renal was 7.41 µM; with HCC-2998 colon, 17.8 µM; with HT29 colon, 11.7 µM; with MDA-MB-231 breast, 10.2 µM; in the assay with NCI-H460 lung it was 19.5 µM; in the assay with OVCAR-4 ovarian, 23.5 µM. The GI50 with OVCAR-5 ovarian is 21.1 µM; with OVCAR-8 ovarian, 27.5 µM; with RXF 393 renal, 6.12 µM; with U251 CNS, 15.7 µM. Moreover, the TGI in the assay with A498 renal is 42.9 µM; with HCC-2998 colon, more than 81.1 µM; in the assay on HT29 colon, 30 µM; in the assay on MDA-MB-231 breast, 29.3 µM; with NCI-H460 lung, 53.8 µM; with OVCAR-4 ovarian, more than 100 µM. Further, the TGI in the assay with OVCAR-5 ovarian was more than 77.7 µM; in the assay on OVCAR-8 ovarian it was more than 100 µM; in the assay on RXF 393 renal, 21.1 µM; with U251 CNS, 58.7 µM.

On to `CCOC(=O)CC1(O)C=CC(=O)C=C1`, for which the GI50 is 3.09 µg/mL with A498 renal; 2.56 µg/mL with HCC-2998 colon; 2.17 µg/mL in the assay with HT29 colon; 0.443 µg/mL in the assay on MDA-MB-231 breast; 1.12 µg/mL in the assay with NCI-H460 lung; 2.21 µg/mL with OVCAR-4 ovarian. The GI50 with OVCAR-5 ovarian is 3.18 µg/mL; with OVCAR-8 ovarian, 0.425 µg/mL; with RXF 393 renal, 0.666 µg/mL; in the assay with U251 CNS, 0.477 µg/mL. In addition, the TGI in the assay with A498 renal was determined as 5.26 µg/mL; in the assay with HCC-2998 colon, 4.68 µg/mL; in the assay with HT29 colon, 4.46 µg/mL; with MDA-MB-231 breast it was 1.31 µg/mL; with NCI-H460 lung it was 3.21 µg/mL; in the assay with OVCAR-4 ovarian, 4.44 µg/mL. Further, the TGI in the assay on OVCAR-5 ovarian came to 5.42 µg/mL; in the assay with OVCAR-8 ovarian, 1.13 µg/mL; in the assay on RXF 393 renal it was 1.75 µg/mL; in the assay with U251 CNS, 1.45 µg/mL.

For the molecule `COc1ccc(-c2n[nH]nc2-c2csc3ccccc23)cc1OC`, the GI50 is 2.96 µM in the assay on A498 renal; 4.21 µM with HCC-2998 colon; 2.78 µM in the assay with HT29 colon; 3.21 µM in the assay with MDA-MB-231 breast; 3.56 µM in the assay on NCI-H460 lung; 6.33 µM in the assay on OVCAR-4 ovarian. Besides, the GI50 is 7.91 µM in the assay on OVCAR-5 ovarian, 4.24 µM with OVCAR-8 ovarian, 2.11 µM with RXF 393 renal and 2.19 µM in the assay on U251 CNS. The TGI in the assay on A498 renal was 12.1 µM; in the assay on HCC-2998 colon, 19.4 µM; in the assay with HT29 colon it was 10.6 µM; in the assay with MDA-MB-231 breast, 35.5 µM; in the assay on NCI-H460 lung it was 18.9 µM; in the assay with OVCAR-4 ovarian it was more than 100 µM. Moreover, the TGI with OVCAR-5 ovarian is more than 100 µM; with OVCAR-8 ovarian, 39.1 µM; in the assay on RXF 393 renal, 6.71 µM; with U251 CNS it was 11.4 µM.

`CCc1c2c(nc3cc4c(cc13)OCO4)-c1cc3c(c(=O)n1C2)COC(=O)[C@@]3(CC)OC(=O)CN`: the GI50 is less than 0.0107 µM with A498 renal; less than 0.0112 µM in the assay with HCC-2998 colon; less than 0.01 µM in the assay with HT29 colon; 0.195 µM in the assay with MDA-MB-231 breast; less than 0.01 µM with NCI-H460 lung; 0.0244 µM in the assay on OVCAR-4 ovarian. The GI50 in the assay on OVCAR-5 ovarian, with OVCAR-8 ovarian, with RXF 393 renal and with U251 CNS was less than 0.01 µM in each case. In addition, the TGI was 0.166 µM in the assay on A498 renal; 0.194 µM in the assay with HCC-2998 colon; 3.83 µM in the assay on HT29 colon; 15 µM in the assay on MDA-MB-231 breast; less than 0.01 µM in the assay with NCI-H460 lung; 0.711 µM in the assay on OVCAR-4 ovarian. In addition, the TGI was 0.417 µM in the assay with OVCAR-5 ovarian, 0.131 µM in the assay with OVCAR-8 ovarian, less than 0.0324 µM with RXF 393 renal and 0.124 µM in the assay on U251 CNS.

Consider `COc1cc(CSc2nc3ccc(C)cc3c(=O)n2Cc2ccccc2)cc(OC)c1OC`, for which the GI50 is 2.14 µM in the assay on A498 renal; 3.96 µM with HCC-2998 colon; 0.595 µM with HT29 colon; 3.26 µM in the assay on MDA-MB-231 breast; 2.26 µM in the assay on NCI-H460 lung; 5.01 µM in the assay with OVCAR-4 ovarian. The GI50 in the assay on OVCAR-5 ovarian was 4.82 µM; in the assay with OVCAR-8 ovarian, 4.41 µM; in the assay on RXF 393 renal, 2.29 µM; with U251 CNS, 3.2 µM. For the same molecule, the TGI in the assay on A498 renal was 12.4 µM; in the assay with HCC-2998 colon it was more than 100 µM; in the assay with HT29 colon, 80.8 µM; in the assay on MDA-MB-231 breast, more than 100 µM; in the assay with NCI-H460 lung, more than 100 µM; in the assay on OVCAR-4 ovarian it was 63.4 µM. The TGI in the assay with OVCAR-5 ovarian was more than 100 µM; with OVCAR-8 ovarian, more than 100 µM; in the assay with RXF 393 renal it was 9.75 µM; with U251 CNS, 20.8 µM.

Turning to `COc1cc(OC)c2c(=O)c(O)c(-c3ccc(OC)c(OC)c3)oc2c1`, the TGI is more than 100 µM with A498 renal; 9.34 µM in the assay with HCC-2998 colon; more than 100 µM in the assay on HT29 colon; more than 100 µM in the assay on MDA-MB-231 breast; more than 100 µM with NCI-H460 lung; 2.31 µM in the assay on OVCAR-4 ovarian. For the same molecule, the TGI in the assay on OVCAR-5 ovarian is more than 100 µM; with OVCAR-8 ovarian, more than 100 µM; with RXF 393 renal, 56.6 µM; in the assay with U251 CNS, more than 100 µM.

In the case of `CC(C)(C)c1ccc([I+]c2ccc(C(C)(C)C)cc2)cc1`, the GI50 with A498 renal was 1.37 µM; with HCC-2998 colon it was 1.78 µM; in the assay with HT29 colon, 1.34 µM; in the assay on MDA-MB-231 breast, 1.35 µM; in the assay on NCI-H460 lung, 1.66 µM; in the assay with OVCAR-4 ovarian, 0.658 µM. The GI50 in the assay with OVCAR-5 ovarian is 3.24 µM; in the assay with OVCAR-8 ovarian, 1.44 µM; with RXF 393 renal, 1.99 µM; in the assay on U251 CNS it was 1.47 µM. Besides, the TGI amounted to 3.81 µM in the assay with A498 renal; 9.09 µM in the assay on HCC-2998 colon; 4.78 µM in the assay with HT29 colon; 2.83 µM in the assay with MDA-MB-231 breast; 4.16 µM in the assay with NCI-H460 lung; 11 µM in the assay on OVCAR-4 ovarian. Further, the TGI with OVCAR-5 ovarian came to 12.9 µM; with OVCAR-8 ovarian, 3.72 µM; in the assay on RXF 393 renal, 5.52 µM; in the assay with U251 CNS, 3.59 µM.
